The source of these data is patent publication US9504652B2 (Druggability Technologies IP Holdco (Jersey) Ltd., priority 2010, dated 2016).

The conditions of series [1]: over 72 hours, single oral 300 mg dose of [14C]-Aprepitant; cited from earlier work.
For series [2] the following is noted: cited from earlier work.
For another series, the system named is human liver microsomes. Conditions: cited from earlier work.
A short description of series [3]: Comparative dissolution test (wettability and redispersibility) in distillate water. Format: physicochemical. Conditions: 4.0 mg Aprepitant in 8.0 mL distillate water, stirred 10 minutes.
The nature of another series: PAMPA permeability. Format: in vitro ADME. Conditions: for Papp: PAMPA. The source says: The sample containing the reference compound was a suspension of crystals visible by the naked eye, while the other two samples were opalescent colloid solutions. The receiver compartment was phosphate buffered saline with 1% sodium lauryl sulphate and 5% DMSO.

Where two headings read alike, the source gives them in different places.

With `C[C@@H](O[C@H]1OCCN(Cc2n[nH]c(=O)[nH]2)[C@H]1c1ccc(F)cc1)c1cc(C(F)(F)F)cc(C(F)(F)F)c1` [Aprepitant, 5-[[(2R,3S)-2-[(1R)-1-[3,5-bis(trifluoromethyl)phenyl]ethoxy]-3-(4-fluorophenyl)-4-morpholinyl]methyl]-1,2-dihydro-3H-1,2,4-triazol-3-one], the “share of the radioactivity in plasma accounted for by Aprepitant” value in series [1] was “approximately 24%”. Also, the solubility entry in series [2] (acetonitrile) is on record as “slightly soluble”; in series [2] (ethanol), “sparingly soluble”; in series [2] (isopropyl acetate), “sparingly soluble”; in series [2] (water) it was “practically insoluble”. Also, the “CYP enzymes with no metabolism detected” value with human liver microsomes was “No metabolism by CYP2D6, CYP2C9, or CYP2E1 was detected”. In the series with human liver microsomes, the “metabolizing CYP enzymes” value is “metabolized primarily by CYP3A4 with minor metabolism by CYP1A2 and CYP2C19”. In series [3], the “wettability and redispersibility / dissolution” value was “did not wet and did not dissolve”. Moreover, the “ratio of PAMPA permeability for FeSSIF and FaSSIF” value in “PAMPA permeability” (FeSSIF/FaSSIF) is given as 10.7. Also, the Papp amounted to 0.044 ×10⁻⁶ cm/s in the series “PAMPA permeability” (redispersed in FaSSIF) and 0.471 ×10⁻⁶ cm/s in “PAMPA permeability” (redispersed in FeSSIF).

One may read the Papp as the rate of passage across a membrane or cell layer, normalised by area and donor concentration.
